Data reported in patent EP0143987A1, “Therapeutic compositions endowed with antiviral activity” (Stendardi, Anna Gioia, priority 1983, dated 1985).

Key:
[1] = test system: herpex simplex virus type 1 (ATCC VR-733); assay: plaque reduction test in Vero cells; type: cell-based; conditions: mean of three samples, 72 hours, untreated control 134 plaques
Protocol: The mutual synergistic activity of acyclovir and BVDU was evaluated on the herpex simplex virus type 1 (ATCC VR-733), grown in Vero cells (ATCC CCL 81) in MEM T-199 containing 2% calf serum.
The method used was the plaque reduction test /P. Collins et al. (1977) Annals, of the New York Academy of Sciences 284, pp. 49-59/. For this purpose, confluent monolayers of Vero cells, seeded in multi-well plates (diameter 3.5 cm) at a concentration of […] cells/plate, were infected with 150 plaque-forming units (PFU) of HSV-1 per plate.
After an adsorption period of one hour at room temperature and removal of the unadsorbed virus, the monolayers were washed with buffered saline solution and then incubated at 35°C, in 5% CO2, in MEM T-199 containing 2% calf serum and 0.75% carboxymethylcellulose, both in the absence and in the presence of the inhibitors.
72 hours later, the infected monolayers were washed three times with saline solution and dyed with a 0.1% methylene blu solution in order to be able to count the number of lysis plaques resulting from the multiplication of the virus.
The number represent the mean value of three samples, and correspond to the number of plaques obtained in the absence or in the presence of acyclovir and BVDU, used either individually or in association.
The above values were then expressed as percentage of the number of plaques obtained in untreated control cultures and plotted, in the ordinate axis, against the logarithm of the concentration used (in abscissa).
This enabled to determine the concentration of the two drugs (alone or in combination) which were necessary for reducing the number of viral plaques by 100% (ID100) […]

[2] = test system: HSV-1; assay: appearance of resistant HSV-1 mutants following treatment; type: cell-based; conditions: for Resistant mutants/10^4 viruses: plaques counted 72 hours later; for HSV-1 mutants resistant, pre-existing within the virus population: approximate restatement of Table 2 (drugs used individually)
Protocol: Finally, tests were carried out which aimed at quantifying the appearance of resistant HSV-1 mutants following treatment with acyclovir and BVDU, used individually or in association. For these tests the two compounds were used in concentrations which were 3.3 times (acyclovir) and 1.4 times (BVDU) the ID 100 value, so as to be able to completerly prevent the multiplication of sensitive viruses. For this 5 purpose, […] Vero cells, infected with HSV-1 at a multiplicity of 0.3 PFU/cell, were seeded on a preformed monolayer of uninfected Vero cells and left to adhere for 4 hours at 35°C in T-199 with 2% serum, in the presence of the inhibitors.
The liquid culture medium was then removed and replaced with new medium containing the inhibitors and 0.75% carboxymethylcellulose.
The number of plaques developed following multiplication of resistant viruses was determined 72 hours later.

[3] = test system: type 1 (HSV-1) herpes simplex viruses; conditions: background statement; cited from earlier work
[4] = test system: type 2 (HSV-2) herpes simplex viruses; conditions: background statement; cited from earlier work

Compound | number of plaques ([1]; Acyclovir 0.075 µM alone) | number of plaques ([1]; Acyclovir 0.15 µM alone) | number of plaques ([1]; Acyclovir 0.3 µM alone) | number of plaques ([1]; Acyclovir 0.6 µM alone) | number of plaques ([1]; Acyclovir 1.2 µM alone) | Resistant mutants/10^4 viruses ([2]; Acyclovir 2.5 μM alone) | HSV-1 mutants resistant, pre-existing within the virus population [2] | inhibition of the multiplication of HSV-1 [3] | inhibition of the multiplication of HSV-2 [4] | number of plaques ([1]; BVDU 0.01 µM alone) | number of plaques ([1]; BVDU 0.02 µM alone) | number of plaques ([1]; BVDU 0.04 µM alone) | number of plaques ([1]; BVDU 0.8 µM alone) | Resistant mutants/10^4 viruses ([2]; BVDU 1.0 μM alone)
Nc1nc2c(ncn2COCCO)c(=O)[nH]1 [Acyclovir, 9-(2-hydroxyethoxymethyl) guanine] | 111 | 99 | 52 | 8 | 0 | 28.6 /10^4 viruses | ~3 per 1000 sensitive viruses | inhibits to an equal extent | inhibits to an equal extent | – | – | – | – | –
O=c1[nH]c(=O)n([C@H]2C[C@H](O)[C@@H](CO)O2)cc1/C=C/Br [BVDU, E-5-(2-bromovinyl)-2'-deoxyuridine] | – | – | – | – | – | – | ~1 per 1000 sensitive viruses | effective against HSV-1 | not against HSV-2 | 141 | 131 | 109 | 81 | 13.8 /10^4 viruses
